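Step 1: Grow cells in 96-well plates. Step 2: Expose to compound for 48 hours at 5 concentrations. Step 3: Interpolate endpoints linearly; if unreached, use highest concentration. TGI: concentration producing complete growth inhibition.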
Experiments:
Test in all cases: NCI anticancer screen, dose series, 48 h
[1] = tested on: 786-0 renal
[2] = tested on: A498 renal
[3] = tested on: A549 NSCLC
[4] = tested on: ACHN renal
[5] = tested on: BT-549 breast
[6] = tested on: CAKI-1 renal
[7] = tested on: CCRF-CEM leukemia
[8] = tested on: COLO 205 colon
[9] = tested on: DU-145 prostate
[10] = tested on: EKVX NSCLC
[11] = tested on: HCC-2998 colon
[12] = tested on: HCT-116 colon
[13] = tested on: HCT-15 colon
[14] = tested on: HL-60(TB) leukemia
[15] = tested on: HOP-62 NSCLC
[16] = tested on: HOP-92 NSCLC
[17] = tested on: HS 578T breast
[18] = tested on: HT29 colon
[19] = tested on: IGROV1 ovarian
[20] = tested on: K-562 leukemia
[21] = tested on: KM12 colon
[22] = tested on: LOX IMVI melanoma
[23] = tested on: M14 melanoma
[24] = tested on: MALME-3M melanoma
[25] = tested on: MCF7 breast
[26] = tested on: MDA-MB-231 breast
[27] = tested on: MDA-MB-435
[28] = tested on: MDA-N
[29] = tested on: MOLT-4 leukemia
[30] = tested on: NCI-H226 lung
[31] = tested on: NCI-H23 lung
[32] = tested on: NCI-H460 lung
[33] = tested on: NCI-H522 lung
[34] = tested on: NCI/ADR-RES ovarian
[35] = tested on: OVCAR-3 ovarian
[36] = tested on: OVCAR-5 ovarian
[37] = tested on: OVCAR-8 ovarian
[38] = tested on: PC-3 prostate
[39] = tested on: RPMI-8226 leukemia
[40] = tested on: SF-268 CNS
[41] = tested on: SF-295 CNS
[42] = tested on: SF-539 CNS
[43] = tested on: SK-MEL-2 melanoma
[44] = tested on: SK-MEL-28 melanoma
[45] = tested on: SK-MEL-5 melanoma
[46] = tested on: SK-OV-3 ovarian
[47] = tested on: SN12C renal
[48] = tested on: SNB-19 CNS
[49] = tested on: SNB-75 CNS
[50] = tested on: SW-620 colon
[51] = tested on: T-47D breast
[52] = tested on: TK-10 renal
[53] = tested on: U251 CNS
[54] = tested on: UACC-257 melanoma
[55] = tested on: UACC-62 melanoma
[56] = tested on: UO-31 renal
[57] = tested on: OVCAR-4 ovarian
[58] = tested on: SR leukemia

Compound: CC(C)(C)n1c(=O)n2n(c1=O)C1c3cccc4cccc(c34)C2C2c3cccc4cccc(c34)C1n1c(=O)n(C(C)(C)C)c(=O)n12
- TGI [1]: > 100 µM
- TGI [2]: > 100 µM
- TGI [3]: > 100 µM
- TGI [4]: > 100 µM
- TGI [5]: > 100 µM
- TGI [6]: > 100 µM
- TGI [7]: > 100 µM
- TGI [8]: > 100 µM
- TGI [9]: > 100 µM
- TGI [10]: > 100 µM
- TGI [11]: > 100 µM
- TGI [12]: > 100 µM
- TGI [13]: > 100 µM
- TGI [14]: > 100 µM
- TGI [15]: > 100 µM
- TGI [16]: > 100 µM
- TGI [17]: > 100 µM
- TGI [18]: > 100 µM
- TGI [19]: > 100 µM
- TGI [20]: > 100 µM
- TGI [21]: > 100 µM
- TGI [22]: > 100 µM
- TGI [23]: > 100 µM
- TGI [24]: > 100 µM
- TGI [25]: > 100 µM
- TGI [26]: > 100 µM
- TGI [27]: > 100 µM
- TGI [28]: > 100 µM
- TGI [29]: > 100 µM
- TGI [30]: > 100 µM
- TGI [31]: > 100 µM
- TGI [32]: > 100 µM
- TGI [33]: > 100 µM
- TGI [34]: > 100 µM
- TGI [35]: 60 µM
- TGI [36]: > 100 µM
- TGI [37]: > 100 µM
- TGI [38]: > 100 µM
- TGI [39]: > 100 µM
- TGI [40]: > 100 µM
- TGI [41]: > 100 µM
- TGI [42]: > 100 µM
- TGI [43]: > 100 µM
- TGI [44]: > 100 µM
- TGI [45]: > 100 µM
- TGI [46]: > 100 µM
- TGI [47]: > 100 µM
- TGI [48]: > 100 µM
- TGI [49]: > 100 µM
- TGI [50]: > 100 µM
- TGI [51]: > 100 µM
- TGI [52]: > 100 µM
- TGI [53]: > 100 µM
- TGI [54]: > 100 µM
- TGI [55]: > 100 µM
- TGI [56]: > 100 µM

Compound: O=C(NCCCN(CCCCN(CCCNC(=O)c1cc(S(=O)(=O)O)cc(O)c1O)C(=O)c1cc(S(=O)(=O)O)cc(O)c1O)C(=O)c1cc(S(=O)(=O)O)cc(O)c1O)c1cc(S(=O)(=O)O)cc(O)c1O
- TGI [1]: > 100 µM
- TGI [2]: > 100 µM
- TGI [3]: > 100 µM
- TGI [4]: > 100 µM
- TGI [5]: > 100 µM
- TGI [6]: > 100 µM
- TGI [7]: > 100 µM
- TGI [8]: > 100 µM
- TGI [9]: > 100 µM
- TGI [11]: > 100 µM
- TGI [12]: > 100 µM
- TGI [13]: > 100 µM
- TGI [14]: > 100 µM
- TGI [16]: > 100 µM
- TGI [17]: > 100 µM
- TGI [18]: > 100 µM
- TGI [19]: > 100 µM
- TGI [20]: > 100 µM
- TGI [21]: > 100 µM
- TGI [22]: > 100 µM
- TGI [24]: > 100 µM
- TGI [26]: > 100 µM
- TGI [27]: > 100 µM
- TGI [28]: > 100 µM
- TGI [30]: > 100 µM
- TGI [31]: > 100 µM
- TGI [32]: > 100 µM
- TGI [33]: > 100 µM
- TGI [34]: > 100 µM
- TGI [57]: > 100 µM
- TGI [37]: > 100 µM
- TGI [38]: > 100 µM
- TGI [40]: > 100 µM
- TGI [43]: > 100 µM
- TGI [44]: > 100 µM
- TGI [45]: > 100 µM
- TGI [47]: > 100 µM
- TGI [48]: > 100 µM
- TGI [49]: > 100 µM
- TGI [58]: > 100 µM
- TGI [50]: > 100 µM
- TGI [51]: > 100 µM
- TGI [52]: > 100 µM
- TGI [53]: > 100 µM
- TGI [54]: > 100 µM
- TGI [55]: > 100 µM
- TGI [56]: > 100 µM
